Molecules are shown by their SMILES. Peptide text beside a SMILES is read from it.

Common to all, as to type: functional, cell-based
Assay [1] concerns the target T1, Solute carrier family 15 member 1 (Homo sapiens) (UniProt P46059).
T1 sequence (whole entry): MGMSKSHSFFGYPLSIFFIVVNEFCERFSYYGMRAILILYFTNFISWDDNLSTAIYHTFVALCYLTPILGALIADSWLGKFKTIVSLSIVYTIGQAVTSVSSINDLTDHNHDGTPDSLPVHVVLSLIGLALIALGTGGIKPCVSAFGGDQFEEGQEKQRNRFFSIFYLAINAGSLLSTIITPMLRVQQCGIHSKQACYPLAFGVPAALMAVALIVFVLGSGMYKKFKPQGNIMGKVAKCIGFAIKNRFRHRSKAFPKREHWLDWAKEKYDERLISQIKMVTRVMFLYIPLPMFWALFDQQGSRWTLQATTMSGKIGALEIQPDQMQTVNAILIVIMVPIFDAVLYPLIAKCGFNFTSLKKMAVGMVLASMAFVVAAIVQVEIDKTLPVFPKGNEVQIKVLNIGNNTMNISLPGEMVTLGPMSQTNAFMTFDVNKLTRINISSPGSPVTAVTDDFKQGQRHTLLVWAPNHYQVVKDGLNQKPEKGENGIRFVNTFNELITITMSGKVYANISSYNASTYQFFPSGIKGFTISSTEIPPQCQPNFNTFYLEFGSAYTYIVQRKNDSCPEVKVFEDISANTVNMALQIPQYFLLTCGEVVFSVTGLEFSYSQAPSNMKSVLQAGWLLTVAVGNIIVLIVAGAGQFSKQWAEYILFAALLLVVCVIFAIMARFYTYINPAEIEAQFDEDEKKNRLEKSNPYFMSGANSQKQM
Nature of the assay: TP_TRANSPORTER: inhibition of fMLP uptake (fMLP: 0.1 uM, Carnosine: 10000 uM) in Caco-2 cells.

The target of assay [2] is T1, Solute carrier family 15 member 1 (Homo sapiens). Briefly: TP_TRANSPORTER: inhibition of Gly-Sar uptake (Gly-Sar: 100 uM, fMLP: 1000 uM) in Xenopus laevis oocytes. The settings on record: Oocyte.
Assay [3] shares this target. Nature of the assay: TP_TRANSPORTER: uptake in Xenopus laevis oocytes. The conditions noted are these: Oocyte.
Assay [4] shares this target. Nature of the assay: TP_TRANSPORTER: inhibition of fMLP uptake (fMLP: 0.1 uM, Gly-Leu: 10000 uM) in Caco-2 cells.
Assay [5] shares this target. Briefly: TP_TRANSPORTER: inhibition of fMLP uptake (fMLP: 0.12 uM, Gly-Leu: 10000 uM) in Xenopus laevis oocytes. The settings on record: Oocyte.
Assay [6] shares this target. Briefly: TP_TRANSPORTER: inhibition of fMLP uptake (fMLP: 0.1 uM, Gly-Pro: 10000 uM) in Caco-2 cells.

As a reminder, the inhibition is the share of the control response that was lost under treatment. For `NCCC(=O)N[C@@H](Cc1c[nH]cn1)C(=O)O`, the inhibition in assay [1] is 93%.
In the case of `CSCC[C@H](NC=O)C(=O)N[C@@H](CC(C)C)C(=O)N[C@@H](Cc1ccccc1)C(=O)O`, in assay [2], the inhibition was 88%. Also, the Activity result in assay [3] is “substrate [+]”.
Consider `CC(C)C[C@H](NC(=O)CN)C(=O)O`, for which the inhibition in assay [4] is 93%. Moreover, the Activity entry in assay [5] is “inhibitor [+]”.
Turning to `NCC(=O)N1CCC[C@H]1C(=O)O` (H-Gly-Pro-OH), in assay [6], the inhibition is 78%.

The values above are taken from ChEMBL document CHEMBL2074327, “hPepT1-mediated epithelial transport of bacteria-derived chemotactic peptides enhances neutrophil-epithelial interactions” (J Clin Invest, 1998).
